SMILES strings stand for the structures.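 Cultured in 96-well plates, cells were exposed to test compound for 48 hours across five concentrations. Here, GI50 denotes the concentration required for 50% inhibition of growth. TGI: total growth inhibition.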 Where only a bound is given, the exact number is not on record here.

The assay deals with MDA-MB-468 breast. Kind of assay: NCI tumour cell line growth inhibition, 48 h.

Take `O=c1cc(-c2ccccc2Cl)[nH]c2cc3c(cc12)OCO3`: the GI50 is 13900 nM and the TGI is over 100000 nM.

As for `C[C@@H]1CN2[C@H]3[C@@H]1CC[C@]31CCC(=O)O[C@]1(C)[C@@H]1CC[C@H]3CCC=C3[C@@H]12`, the GI50 is over 70000 nM and the TGI is over 70000 nM.

As to `COc1ccc(-n2sc(=O)n(Cc3ccc(COC(=O)C(C)c4ccc(CC(C)C)cc4)cc3)c2=O)cc1` (centres undefined), the GI50 is 925 nM and the TGI stood at 2130 nM.

In the case of `C=C=[CH][Sn]([c]1ccccc1)([c]1ccccc1)[c]1ccccc1`, the GI50 is 1340 nM and the TGI was found to be 2660 nM.

Turning to `O=C(Nc1ccc(S(=O)(=O)NC2CCCCCC2)cc1)C(c1ccccc1)S(=O)(=O)c1ccc(F)cc1` (centres undefined), the GI50 was 863 nM and the TGI was found to be 3230 nM.

On to `C[C@@H](Oc1cc(-c2cnn(C3CC4(CCCNC4)C3)c2)cnc1N)c1c(Cl)ccc(F)c1Cl` (some centres undefined), for which the GI50 was 1090 nM and the TGI was 2490 nM.

Consider `N#Cc1c(Oc2ccc(F)c(NC(=O)Cc3cccc(C(F)(F)F)c3)c2)ccc2nc(NC(=O)C3CC3)sc12`, for which the GI50 was 3980 nM and the TGI is over 100000 nM.

Turning to `Cc1cc2nc3c4ccccc4n(CCN(C)C)c3nc2cc1C`, the GI50 is 1320 nM and the TGI was 3620 nM.

As for `CON`, the GI50 was over 100000 nM and the TGI was over 100000 nM.

`CN(NC(=O)CC(=O)NN(C)C(=S)c1ccc(Cl)cc1)C(=S)c1ccc(Cl)cc1`: the GI50 is 23900 nM and the TGI was over 100000 nM.

As to `CCN1C(=O)N(CC)C2C1NN=c1s/c(=C\c3ccccc3)c(=O)n12` (centres undefined), the GI50 was 86.7 nM and the TGI was over 100000 nM.

As to `CCNCCNc1cc(-c2cccc(C(F)(F)F)c2)c(C#N)c2nc3ccccc3n12`, the GI50 was 1340 nM and the TGI is 2840 nM.

Turning to `CC(C)N(C[C@H]1O[C@@H](n2cnc3c(N)ncnc32)[C@H](O)[C@@H]1O)C1CC(CCc2nc3ccc(C(C)(C)C)cc3[nH]2)C1` (some centres undefined), the GI50 is 18400 nM and the TGI is over 72600 nM.

`COc1cccc(Nc2nccc(Nc3ccc4[nH]ncc4c3)n2)c1`: the GI50 is 1250 nM and the TGI amounted to 2770 nM.

Turning to `COc1cnc2c(c1)C(=O)c1c-2n(CCCN2CCN(CCO)CC2)c(=O)c2cc([N+](=O)[O-])ccc12`, the GI50 is 2470 nM and the TGI was determined as 7540 nM.

For the molecule `CCS/C(Nc1ccccc1)=C(\C#N)C(=O)N/N=C/c1ccc(Cl)cc1Cl`, the GI50 is 2600 nM and the TGI was 9190 nM.

For the molecule `O=C(NO)c1cnc(N2CCN(S(=O)(=O)c3ccc4ccccc4c3)CC2)nc1`, the GI50 was 74.3 nM and the TGI turned out to be 6500 nM.

As to `CCOC(=O)C(Cc1ccc(OC)cc1)C(=O)OCC`, the GI50 was 4170 nM and the TGI stood at 20600 nM.

For the molecule `N#CSCC(=O)c1ccc(Cl)cc1`, the GI50 was 2280 nM and the TGI came out at 10400 nM.

Turning to `Oc1[nH]c2ccc(Cl)cc2c1/C=c1/ccc2c(c1)N=C(c1cc(F)cc(F)c1)N=2`, the GI50 was 3460 nM and the TGI was determined as 13200 nM.

`C=C(C)[C@@H]1CC[C@]2(C)[C@H](C=CC3=C4C[C@@](C)(CO)CC[C@]4(C)CC[C@]32C)[C@@]1(C)CCCN`: the GI50 was 1580 nM and the TGI came to 3200 nM.

On to `O=[N+]([O-])c1ccc(-c2ccccc2)c([As](=O)(O)O)c1`, for which the GI50 is 11800 nM and the TGI worked out at 28100 nM.

With `CCCCCc1c(C)[nH]c(/C=c2\[nH]/c(=C3/C=c4ccccc4=N3)cc2OC)c1C`, the GI50 is 59.1 nM and the TGI was found to be 1630 nM.

In the case of `COc1ccc(C2C3=C(COC3=O)N(CCO)c3cc4c(cc32)OCCO4)cc1OC` (centres undefined), the GI50 is 786 nM and the TGI was determined as 5190 nM.

Consider `C=C1C(=O)OC2CC3(C)OC3C3OC3C3=CC(OC3=O)C12` (centres undefined), for which the GI50 was 1580 nM and the TGI was found to be 3280 nM.

With `C/C(=N\Nc1cccc(Cl)n1)c1ccccn1`, the GI50 was 764 nM and the TGI is 2420 nM.

Take `ClC1=C(Cl)C(Cl)=C(Cl)C1=Cc1ccc(Cl)cc1`: the GI50 was 251 nM and the TGI turned out to be 869 nM.

Turning to `CCCCCCC1N=C(N)N=C(N)N1c1ccc(Cl)cc1` (centres undefined), the GI50 is 1350 nM and the TGI was 4720 nM.

For `COc1ccc2c(c1)Oc1nc(N)c(C#N)c(N)c1C2Sc1ccc(C)cc1` (centres undefined), the GI50 is 1200 nM and the TGI is 2600 nM.

Turning to `CN1CCN(c2ccc3nc4c(nc3c2C(F)(F)F)C(=O)c2ncccc2C4=O)CC1`, the GI50 was 1060 nM and the TGI stood at 2580 nM.

Take `COc1ccc(NC(=O)O[C@H]2[C@H](O[C@H]3[C@@H](O)COC(O[C@H]4C[C@H]5[C@@H]6CC=C7C[C@@H](O)CC[C@]7(C)[C@H]6CC[C@]5(C)[C@H]4[C@H](C)C(=O)CCC(C)C)[C@@H]3OC(C)=O)OC[C@@H](O)[C@@H]2O)cc1` (some centres undefined): the GI50 is under 10 nM and the TGI came to 630 nM.

With `CC(=O)OCC(=O)C1(O)C(C)CC2C3C=C(C)C4=Cc5c(cnn5-c5ccccc5)CC4(C)C3C(O)CC21C` (centres undefined), the GI50 is 2030 nM and the TGI came to 4330 nM.

`CCN(CC)c1ccc2nc3c4ccccc4c(=NC(=O)c4ccccc4-c4c5ccc(N(CC)CC)cc5[o+]c5cc(N(CC)CC)ccc45)cc-3oc2c1`: the GI50 is 1010 nM and the TGI stood at 2430 nM.

Regarding `COC(=O)Nc1nc2ccc(Sc3ccccc3)cc2[nH]1`, the GI50 is 165 nM and the TGI came out at 1530 nM.

In the case of `CC(=O)N[C@@H](Cc1ccc(OP(=O)(O)O)cc1)C(=O)N[C@H]1CCC(=O)N2CCC[C@@H](C(=O)NCc3ccc(O)cc3)N2C1=O`, the GI50 was over 25000 nM and the TGI was over 25000 nM.

As for `O=C(CC1(O)C(=O)Nc2c(Cl)ccc(Cl)c21)c1ccc(C2CC2)cc1` (centres undefined), the GI50 was 297 nM and the TGI came to 10200 nM.

For `COc1cc(/C=C/C(=O)c2ccc(Nc3nc(Nc4ccccc4)nc(Nc4ccc(Cl)cc4)n3)cc2)cc(OC)c1OC`, the GI50 is 11700 nM and the TGI was over 32500 nM.

`CS[C@@]1(C(=O)Nc2ccc3[nH]nc(-c4ccc(OC(C)C)nc4)c3c2)CCN(CC(=O)N2CC=C(c3ccc(-c4ncn(C)n4)cc3)CC2)C1`: the GI50 is over 100000 nM and the TGI was over 100000 nM.

In the case of `N#CC[C@H](C1CCCC1)n1cc(-c2ncnc3[nH]ccc23)cn1`, the GI50 is 23200 nM and the TGI was 78800 nM.

`CN(C)CCOc1nc2ccccc2c2c1-c1ccc(Cl)cc1C2=O`: the GI50 is 606 nM and the TGI was 1970 nM.

Take `Cc1cc2c(C(C)C)c(O)c(O)c(C=O)c2c(O)c1-c1c(C)cc2c(C(C)C)c(O)c(O)c(C=O)c2c1O` (tested in a mixture with another compound): the GI50 is 1010 nM and the TGI was determined as 3750 nM.

As for `COc1cc(C2C(C#N)=C(N)Oc3cc4c(cc32)OCO4)cc2c1OCO2` (centres undefined), the GI50 is 112 nM and the TGI was 836 nM.

On to `CCOc1cc(/C=N\NC(=O)N/N=C/c2ccc(O)c(OCC)c2)ccc1O`, for which the GI50 is 1440 nM and the TGI worked out at 7270 nM.

`CC[C@H](C)[C@H](NC(=O)C12CC(NC(C)=O)(C1)C2)C(=O)N(C)[C@H](C[C@@H](OC(C)=O)c1nc(C(=O)N[C@@H](Cc2ccccc2)C[C@H](C)C(=O)OC)cs1)C(C)C`: the GI50 was 58.4 nM and the TGI was over 9300 nM.

In the case of `CCc1ccccc1-n1c(N)c(C#N)c(-c2ccc(OC)c(OC)c2)c(C#N)c1=O`, the GI50 is 37600 nM and the TGI is over 100000 nM.

In the case of `CNCCOc1nc2c3cnccc3cc(-c3cc(OC)c(OC)c(OC)c3)c2c2ccncc12`, the GI50 was 27.8 nM and the TGI came to 106 nM.

`Brc1ccc(Br)nn1`: the GI50 was 1140 nM and the TGI stood at 2470 nM.

For the origin of these results see PubChem BioAssay (NCI).
